Reference: patent US20260166000A1, “1,8-CINEOLE CONTAINING COMPOSITION FOR THERAPEUTIC USE” (Maria Clementine Martin Klosterfrau Vertriebsgesellschaft …, priority 2020, published 2026)
Entries after “also recorded” stand apart in the source; their conditions may differ.

How the values were obtained:
intestinal microbiome = assay: Microbiome sequencing of stool samples, principal coordinates analysis (PCoA); assay type: in vivo, human; settings: patients with polyposis nasi; before vs after 2-week ingestion, 200 mg 3 times a day (Soledum forte)
Procedure: (§1) As part of the studies, the stool samples of patients with polyposis nasi are analyzed under the influence of 1,8-cineole. For this purpose, a stool sample is first taken before starting the administration of 1,8-cineole and then again after 2 weeks of taking 1,8-cineole 3 times a day (Soledum® forte, content of 1,8-cineole: 200 mg).
(§2) Stool Stabilizer (company: Stratec Molecular) is added to the stool samples and initially stored at a temperature of −20° C. until further processing. Subsequent DNA extraction is performed using the PSP Spin Stool DNA Plus kit according to the manufacturer's instructions (Stratec Molecular). Finally, the isolated DNA is used for microbiome sequencing (TG MiSeq Reagent Kit v3 & NEBNext® Library Quant Kit for Illumina) and analyzed.
The results are illustrated in FIG. 1 in the form of principal coordinate analysis (PCoA) of the examined stool samples of the patients (1 to 5) with polyposis nasi before (without labeling, unfilled circle symbols) and after 2-week ingestion of 1,8-cineole (marked with “*”, filled circle symbols).

[1] = test system: Lachnospiraceae, Bifidobacterium or Faecalibacterium; assay: Microbiome sequencing of stool samples, bacterial genera; assay type: in vivo, human; settings: patients with polyposis nasi; after 2-week therapy, 200 mg 3 times a day
Procedure: as §1, §2
(§3) Following this initial evaluation regarding existing alterations or changes in the intestinal microbiome of patients with polyposis nasi after 2-week ingestion of 1,8-cineole, a detailed evaluation of the microbiome sequencing performed will be performed regarding the bacterial genera identified.

[2] = test system: bacteria of the family Ruminococcacea or the genus Ruminococcus; assay: as above; assay type: in vivo, human; settings: patients with polyposis nasi; after 2-week ingestion, 200 mg 3 times a day
Procedure: as §1, §2, §3

[3] = test system: bacterial genus Prevotella; assay: as above; assay type: in vivo, human; settings: patients with polyposis nasi; after 2-week ingestion, 200 mg 3 times a day
Procedure: as §1, §2, §3

genus Bacteroides = assay: as above; assay type: in vivo, human; settings: patients with polyposis nasi; after 2-week therapy, 200 mg 3 times a day
Procedure: as §1, §2, §3

[4] = test system: cellular complexes of circulating platelets (CD41) with leukocytes; assay: Flow cytometry of cellular complexes of circulating platelets with leukocytes in blood; assay type: in vivo, human; settings: for cellular complexes, neutrophils (Neutros), after / cellular complexes, lymphocytes (Lymphos), after / cellular complexes, eosinophils (Eosinos), after / cellular complexes, monocytes (Monos), after: blood of patients with polyposis nasi, after 2-week administration
Excerpt: Further, these cellular complexes will be specified in more detail by flow cytometer with respect to different leukocyte populations and with respect to the influence of 1,8-cineole.

[5] = test system: monocytes circulating in the blood; assay: Flow cytometry of monocyte subtypes (CD14/CD16) in blood; assay type: in vivo, human
Procedure: The monocytes circulating in the blood can be divided into the three different subtypes, namely “classical”, “intermediate” and “non-classical”, on the basis of their surface proteins CD14 and CD16 by flow cytometry. In flow cytometry, cells are analyzed for cell size, granularity and fluorescent labeling of specific epitopes by passing specific lasers. This allows different cell populations to be differentiated and characterized. […] These observations are now comprehensively analyzed in additional patients individually by flow cytometer, especially under the influence of 1,8-cineole. […] In this regard, reference can also be made to FIG. 5A/B.

[6] = test system: patients with polyposis nasi; assay: Patient perception and clinical therapy of polyposis nasi; assay type: in vivo, human
Procedure: In addition to the molecular biological investigations, the individual perception and quality of life of the patients with regard to the 2-week intake of 1,8-cineole is also surveyed. […] In 38 patients (23 men/15 women between 28 and 72 years, average age 54 years) each with polyposis nasi a therapy with 1,8-cineole was performed (3 times 200 mg 1,8-cineole in the form of capsules “Soledum® forte”).

[7] = test system: Chronic polypous sinusitis; assay: Clinical use in chronic polypous sinusitis; assay type: in vivo, human
Procedure: (§4) In addition, the effect of 1,8-cineole is further investigated on the basis of the following areas of application, with 200 mg of 1,8-cineole being administered 3 times a day for the period indicated in each case (Soledum® forte): • 1. Chronic polypous sinusitis • 2. Chronic recurrent catarrhal sinusitis • 3. Chronic polyposis otitis media without cholesteatoma • 4. Chronic polyposis otitis media with cholesteatoma • Ad 1.

[8] = test system: Chronic recurrent catarrhal sinusitis; assay: Clinical use in chronic recurrent catarrhal sinusitis; assay type: in vivo, human
Procedure: as §4

[9] = test system: Chronic polyposis otitis media without cholesteatoma; assay: Clinical use in chronic polyposis otitis media without cholesteatoma; assay type: in vivo, human
Procedure: as §4

[10] = test system: Chronic polyposis otitis media with cholesteatoma; assay: Clinical use in chronic polyposis otitis media with cholesteatoma; assay type: in vivo, human
Procedure: as §4

[11] = test system: Patients with persistent bronchial asthma; assay: Clinical use in persistent bronchial asthma as add-on therapy; assay type: in vivo, human
[12] = cited from earlier work
[13] = 38 patients with polyposis nasi, 3 times 200 mg, Soledum forte capsules
[14] = one case, small polyps on the olfactory groove, after 2 weeks
[15] = 200 mg 3 times a day, 2-week administration, preoperatively
[16] = 2-week administration, preoperatively, previously refractory otorrhea (local and systemic antibiotics)
[17] = after tympanoplasty, renewed otorrhea with recurrent perforation, 4-week administration
[18] = 2-week administration, preoperatively
[19] = after tympanoplasty, renewed otorrhea with recurrent perforation, 4 weeks of administration
[20] = twelve weeks of continuous therapy

CC12CCC(CC1)C(C)(C)O2 [1,8-cineole, 1,3,3-trimethyl-2-oxabicyclo[2.2.2]octane]
shift of beta diversity (PCoA) of stool samples (intestinal microbiome): clear shift
occurrence of Lachnospiraceae, Bifidobacterium or Faecalibacterium [1]: certain changes or shifts with a tendency to increase
bacteria of the family Ruminococcacea or genus Ruminococcus [2]: significant increase
presence of Prevotella in the intestine [3]: significantly reduced; also recorded: almost complete disappearance
occurrence of Bacteroides in the intestinal microbiome (genus Bacteroides): significantly more abundant
cellular complexes, neutrophils (Neutros), after ([4]; Table 2 (data n2), before 5.37%): 5.09%
cellular complexes, lymphocytes (Lymphos), after ([4]; Table 2 (data n2), before 5.4%): 5.12%
cellular complexes, eosinophils (Eosinos), after ([4]; Table 2 (data n2), before 10.7%): 4.8%
cellular complexes, monocytes (Monos), after ([4]; Table 2 (data n2), before 16.8%): 6.28%
cellular complexes, eosinophils (Eosinos), after ([4]; data n1, before 7.3%): 5.92%
cellular complexes, lymphocytes (Lymphos), after ([4]; data n1, before 12.4%): 5.54%
cellular complexes, neutrophils (Neutros), after ([4]; data n1, before 13.9%): 5.02%
cellular complexes, monocytes (Monos), after ([4]; data n1, before 14.7%): 8.79%
monocyte complexes in blood ([4]; patients with polyposis nasi, after taking over a period of two weeks): massive reduction
monocyte distribution, additional patients analysed individually ([5]; additional patients, 2-week therapy (FIG. 5A/B)): restoration of the monocyte distribution
CD16 "classical" monocytes (CD16 neg.) ([5]; after 2-week therapy (FIG. 5A)): significant increase
"intermediate" monocytes (CD16 pos.) ([5]; after 2-week therapy (FIG. 5B)): clear decrease
distribution of monocyte subpopulations ([5]; patients with polyposis nasi, after 2-week intake, compared with healthy donors (FIG. 4)): marked normalization or reversion
nasal breathing [6, 13]: correspondingly improved
secretion drainage [6, 13]: significantly improved
nasal polyps [6, 14]: significant decrease
olfactory sensation [6, 14]: marked improvement
patients' response (individual perception and quality of life) ([6]; polyposis patients consulted, 2-week intake): predominantly positive
accompanying symptoms of the polyps (anterior and posterior watery rhinorrhea) [7, 15]: reduction of the accompanying symptoms
olfactory performance ([7]; 200 mg 3 times a day, 2-week administration, preoperatively, individual cases): In individual cases also improvement
wound healing ([7]; postoperative): positive influence
recurrences and systemic cortisone administration ([7]; postoperative, in combination with a nasal steroid): reduction of recurrences and systemic cortisone administration
concomitant symptoms of polyps (anterior and posterior watery rhinorrhea) [8, 15]: decrease in concomitant symptoms
olfactory performance [8, 15]: significant improvement
use of nasal steroids ([8]; postoperative): reduction of nasal steroids
wound healing ([8]; postoperative): positive influence
otorrhea [9, 16]: decrease in otorrhea, allowing surgery
otorrhea [9, 17]: decrease in otorrhea
tympanic membrane [9, 17]: spontaneous tympanic membrane closure
cholesteatom masses [10, 18]: no reduction
inflamed mucosa of middle ear and mastoid [10, 18]: positive effect
concomitant otorrhea [10, 16]: decrease in concomitant otorrhea, allowing surgery
otorrhea [10, 19]: decrease of otorrhea
tympanic membrane [10, 19]: spontaneous tympanic membrane closure
tolerability ([11]; 4 times 200 mg/die perorally): well tolerated without side effects
lung function ([11]; 4 times 200 mg/die perorally, one week, with inhaled glucocorticoid, long-acting beta-2-sympathomimetic and theophylline): slight to moderate improvement
reduction of inhaled glucocorticoid requirements ([11]; 4 times 200 mg/die perorally, twelve weeks of continuous therapy): more than 50%
glucocorticoid use in some of the patients treated [11, 20]: temporarily discontinued altogether
need for betamimetics in some patients [11, 20]: significantly reduced
solubility in water [12]: insoluble
